Results: ChEMBL document CHEMBL3132750, “4-Chlorocolchicine derivatives bearing a thiourea side chain at the C-7 position as potent anticancer agents” (Medchemcomm, 2014)

Legend:
[1] = test system: HCT-116; test: Antitumor activity against human HCT116 cells xenografted in BALB/C nude mouse assessed as tumor growth inhibition rate at 20 mg/kg, iv administered three times on days 1, 5, and 9; format: functional; conditions: read-out: TGI
[2] = Metabolic stability in BALB/c mouse hepatic microsomes assessed per mg of microsomal protein at 1 umol/L preincubated for 5 mins by LC-MS/MS method; format: ADME, Liver, Microsome; conditions: 1 µM
[3] = test system: HCT-116; test: Antitumor activity against human HCT116 cells xenografted in BALB/C nude mouse assessed as tumor growth inhibition rate at 10 mg/kg, iv administered three times on days 1, 5, and 9; format: functional; conditions: read-out: TGI
[4] = test system: Mus musculus; test: Toxicity in human HCT116 cells xenografted in BALB/C nude mouse assessed as weight loss at 10 mg/kg, iv administered three times on days 1, 5, and 9; format: organism-based, HCT-116; parameters: dose 10 mg/kg, route intravenous; conditions: in vivo
[5] = test system: A549; test: Cytotoxicity against human A549 cells assessed as inhibition of cell proliferation after 96 hrs; format: functional, cell-based; conditions: A549, 96 h
[6] = test system: Mus musculus; test: Toxicity in human HCT116 cells xenografted in BALB/C nude mouse assessed as weight loss at 20 mg/kg, iv administered three times on days 1, 5, and 9; format: organism-based, HCT-116; parameters: dose 20 mg/kg, route intravenous; conditions: in vivo
[7] = test system: HCT-116; test: Cytotoxicity against human HCT116 cells assessed as inhibition of cell proliferation after 96 hrs; format: functional, cell-based; conditions: HCT-116, 96 h
[8] = test system: Mus musculus; test: Toxicity in human HCT116 cells xenografted in BALB/C nude mouse assessed as mouse mortality at 20 mg/kg, iv administered three times on days 1, 5, and 9; format: organism-based, HCT-116; parameters: dose 20 mg/kg, route intravenous; conditions: in vivo
[9] = test system: Mus musculus; test: Toxicity in human HCT116 cells xenografted in BALB/C nude mouse assessed as mouse mortality at 10 mg/kg, iv administered three times on days 1, 5, and 9; format: organism-based, HCT-116; parameters: dose 10 mg/kg, route intravenous; conditions: in vivo
[10] = test system: HT-29; test: Cytotoxicity against human HT-29 cells assessed as inhibition of cell proliferation after 96 hrs; format: functional, cell-based; conditions: HT-29, 96 h
[11] = test system: Mus musculus; test: Toxicity in human HCT116 cells xenografted in BALB/C nude mouse assessed as mouse mortality at 25 mg/kg, iv administered three times on days 1, 5, and 9; format: organism-based, HCT-116; parameters: dose 25 mg/kg, route intravenous; conditions: in vivo
[12] = test system: Mus musculus; test: Toxicity in human HCT116 cells xenografted in BALB/C nude mouse assessed as mouse mortality at 50 mg/kg, iv administered three times on days 1, 5, and 9; format: organism-based, HCT-116; parameters: dose 50 mg/kg, route intravenous; conditions: in vivo
[13] = test system: HCT-116; test: Antitumor activity against human HCT116 cells xenografted in BALB/C nude mouse assessed as tumor growth inhibition rate at 50 mg/kg, iv administered three times on days 1, 5, and 9; format: functional; conditions: read-out: TGI
[14] = test system: Mus musculus; test: Toxicity in human HCT116 cells xenografted in BALB/C nude mouse assessed as weight loss at 50 mg/kg, iv administered three times on days 1, 5, and 9; format: organism-based, HCT-116; parameters: dose 50 mg/kg, route intravenous; conditions: in vivo
[15] = test system: HCT-116; test: Antitumor activity against human HCT116 cells xenografted in BALB/C nude mouse assessed as tumor growth inhibition rate at 25 mg/kg, iv administered three times on days 1, 5, and 9; format: functional; conditions: read-out: TGI
[16] = test system: Mus musculus; test: Toxicity in human HCT116 cells xenografted in BALB/C nude mouse assessed as weight loss at 25 mg/kg, iv administered three times on days 1, 5, and 9; format: organism-based, HCT-116; parameters: dose 25 mg/kg, route intravenous; conditions: in vivo
[17] = test system: HCT-116; test: Antitumor activity against human HCT116 cells xenografted in BALB/C nude mouse assessed as tumor growth inhibition rate at 40 mg/kg, iv administered three times on days 1, 5, and 9; format: functional; conditions: read-out: TGI
[18] = molecular target: Tubulin (Sus scrofa, UniProt P02554+P02550); test: Inhibition of tubulin polymerization assessed as reduction in tubulin assembly after 5 mins using pig microtubule protein by spectrophotometry; format: protein assay
[19] = test system: Mus musculus; test: Toxicity in human HCT116 cells xenografted in BALB/C nude mouse assessed as weight loss at 40 mg/kg, iv administered three times on days 1, 5, and 9; format: organism-based, HCT-116; parameters: dose 40 mg/kg, route intravenous; conditions: in vivo
[20] = test system: Mus musculus; test: Toxicity in human HCT116 cells xenografted in BALB/C nude mouse assessed as mouse mortality at 40 mg/kg, iv administered three times on days 1, 5, and 9; format: organism-based, HCT-116; parameters: dose 40 mg/kg, route intravenous; conditions: in vivo

## COc1c(Cl)c2c(c(OC)c1OC)-c1ccc(OC)c(=O)cc1[C@@H](NC(=S)Nc1ccc(N(C)C)cc1)CC2
[1]
  inhibition in vivo at 20 mg/kg: 52.5%
[2]
  Intrinsic clearance: 0.152 mL/min/mg
[3]
  inhibition in vivo at 10 mg/kg: 32.6%
[4]
  Activity: Non-toxic
[5]
  IC50: 1.8 nM
[6]
  Activity: Non-toxic
[7]
  IC50: 1.1 nM
[8]
  Activity: Non-toxic
[9]
  Activity: Non-toxic
[10]
  IC50: 0.3 nM

## COc1c(Cl)c2c(c(OC)c1OC)-c1ccc(OC)c(=O)cc1[C@@H](NC(=S)N1CCOCC1)CC2
[11]
  Activity: Non-toxic
[2]
  Intrinsic clearance: 0.061 mL/min/mg
[12]
  Activity: Non-toxic
[13]
  inhibition in vivo at 50 mg/kg: 52.7%
[14]
  Activity: Non-toxic
[5]
  IC50: 44.9 nM
[7]
  IC50: 9.1 nM
[15]
  inhibition in vivo at 25 mg/kg: 31.3%
[16]
  Activity: Non-toxic
[10]
  IC50: 7.2 nM

## CCN(CC)C(=S)N[C@H]1CCc2c(Cl)c(OC)c(OC)c(OC)c2-c2ccc(OC)c(=O)cc21
[11]
  Activity: Non-toxic
[2]
  Intrinsic clearance: 0.541 mL/min/mg
[12]
  Activity: Non-toxic
[13]
  inhibition in vivo at 50 mg/kg: 54.6%
[14]
  Activity: Non-toxic
[5]
  IC50: 10.1 nM
[7]
  IC50: 6.9 nM
[15]
  inhibition in vivo at 25 mg/kg: 29.5%
[16]
  Activity: Non-toxic
[10]
  IC50: 6.1 nM

## CCNC(=S)N[C@H]1CCc2c(Cl)c(OC)c(OC)c(OC)c2-c2ccc(OC)c(=O)cc21
[1]
  inhibition in vivo at 20 mg/kg: 44.4%
[17]
  inhibition in vivo at 40 mg/kg: 62.6%
[2]
  Intrinsic clearance: 0.124 mL/min/mg
[5]
  IC50: 37.9 nM
[6]
  Activity: Non-toxic
[18]
  IC50: 2.36 µM
[7]
  IC50: 7.9 nM
[19]
  Activity: Non-toxic
[20]
  Activity: Non-toxic
[8]
  Activity: Non-toxic
[10]
  IC50: 8.6 nM
